Assay type in all cases: biochemical
Common to all, as to details: 24 hours pre-incubation with enzyme; tripeptide substrate 3 at Km

The target of one experiment is HDAC1 (Homo sapiens (Human), UniProt Q13547). The experiment is described as follows: HDAC enzyme assay, HDAC1. As for the experimental part:
(§1) Compounds for testing were diluted in DMSO to 50 fold the final concentration and a ten point three fold dilution series was made. The compounds were diluted in assay buffer (50 mM HEPES, pH 7.4, 100 mM KCl, 0.001% Tween-20, 0.05% BSA, […] tris(2-carboxyethyl)phosphine) to 6 fold their final concentration. The HDAC enzymes (purchased from BPS Biosciences) were diluted to 1.5 fold their final concentration in assay buffer and pre-incubated with the compounds for 24 hours prior to addition of the substrate.
(§2) The substrate tripeptide substrate 3 (synthesized in house) for each enzyme was equal to the Km as determined by a substrate titration curve. The substrates were diluted in assay buffer at 6× their final concentration with 0.3 μM sequencing grade trypsin (Sigma). The substrate/trypsin mix was added to the enzyme/compound mix, the plate was shaken for 60 seconds and placed into a Spectramax M5 microtiter plate reader. The development of fluorescence was monitored for 30 min. and the linear rate of the reaction was calculated. The IC50 was determined using Graph Pad Prism by a four parameter curve fit. The IC50 values obtained for the compounds of this invention are found in Table 1.

For another experiment, the target named is HDAC2 (Homo sapiens (Human), UniProt Q92769). The experiment is described as follows: HDAC enzyme assay, HDAC2. As for the experimental part:
as §1, §2

Another experiment deals with HDAC3 (Homo sapiens (Human), UniProt O15379). Nature of the experiment: HDAC enzyme assay, HDAC3. The method, then: as §1, §2
Chain of HDAC3 (O15379 whole entry): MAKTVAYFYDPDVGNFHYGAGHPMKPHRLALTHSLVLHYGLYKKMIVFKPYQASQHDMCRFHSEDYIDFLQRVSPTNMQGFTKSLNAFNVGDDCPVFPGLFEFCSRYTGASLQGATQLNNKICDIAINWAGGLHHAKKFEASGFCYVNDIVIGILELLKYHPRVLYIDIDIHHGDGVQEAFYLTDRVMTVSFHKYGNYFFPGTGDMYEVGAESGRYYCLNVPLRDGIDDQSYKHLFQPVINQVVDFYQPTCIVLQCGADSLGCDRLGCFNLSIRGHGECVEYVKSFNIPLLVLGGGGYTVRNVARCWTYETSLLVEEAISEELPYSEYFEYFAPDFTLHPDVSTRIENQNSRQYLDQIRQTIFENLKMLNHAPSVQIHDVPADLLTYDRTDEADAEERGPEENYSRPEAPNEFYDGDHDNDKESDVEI
Chain of HDAC3 (Q9Y618 395-489 partner): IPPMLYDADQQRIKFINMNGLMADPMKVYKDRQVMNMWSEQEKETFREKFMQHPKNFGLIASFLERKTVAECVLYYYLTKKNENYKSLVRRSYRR

The structures appear in SMILES notation.

Chain of HDAC1 (Q13547 whole entry): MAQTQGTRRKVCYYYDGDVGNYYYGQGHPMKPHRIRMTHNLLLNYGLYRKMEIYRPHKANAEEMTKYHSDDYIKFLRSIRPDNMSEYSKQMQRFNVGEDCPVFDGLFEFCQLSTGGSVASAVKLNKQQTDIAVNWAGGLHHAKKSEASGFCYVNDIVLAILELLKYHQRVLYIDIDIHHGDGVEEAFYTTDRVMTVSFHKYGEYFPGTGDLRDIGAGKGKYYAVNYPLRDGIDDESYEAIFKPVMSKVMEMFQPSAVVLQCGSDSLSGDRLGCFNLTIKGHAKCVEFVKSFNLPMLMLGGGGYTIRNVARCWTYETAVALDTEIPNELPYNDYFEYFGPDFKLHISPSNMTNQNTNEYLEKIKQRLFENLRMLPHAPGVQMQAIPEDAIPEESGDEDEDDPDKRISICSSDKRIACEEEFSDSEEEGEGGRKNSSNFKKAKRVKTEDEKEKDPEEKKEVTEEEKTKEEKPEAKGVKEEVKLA
Chain of HDAC2 (Q92769 whole entry): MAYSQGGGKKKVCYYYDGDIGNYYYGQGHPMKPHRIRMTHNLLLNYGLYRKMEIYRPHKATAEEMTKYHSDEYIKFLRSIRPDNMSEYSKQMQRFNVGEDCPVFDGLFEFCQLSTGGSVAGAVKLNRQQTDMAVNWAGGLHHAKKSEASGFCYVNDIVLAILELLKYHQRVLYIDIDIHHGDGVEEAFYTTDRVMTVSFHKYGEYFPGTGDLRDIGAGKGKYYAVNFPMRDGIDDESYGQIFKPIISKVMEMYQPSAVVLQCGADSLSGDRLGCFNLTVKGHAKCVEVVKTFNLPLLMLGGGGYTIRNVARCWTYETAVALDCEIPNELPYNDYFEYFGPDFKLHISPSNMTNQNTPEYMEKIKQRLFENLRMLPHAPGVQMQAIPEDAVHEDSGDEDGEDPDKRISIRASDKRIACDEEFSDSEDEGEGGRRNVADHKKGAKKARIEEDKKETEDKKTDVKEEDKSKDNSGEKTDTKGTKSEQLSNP

Regarding `Nc1ccc(F)cc1NC(=O)c1cnc2c(C3CC3)c(N3CCNCC3)ccc2c1` [Compound A], the half-maximal inhibitory concentration (IC50) at HDAC1 is 468 nM; against HDAC2, 455 nM; against HDAC3 it was 59 nM.
The matching figures for `Nc1ccccc1NC(=O)c1cnc2c(C3CC3)c(N3CCNCC3)ccc2c1` [Compound B]: 355 nM, 372 nM and 53 nM.
Regarding `Nc1cc(F)ccc1NC(=O)c1ccc2c(c1)CC(=O)N2` [Compound C], the “IC50 (nM) HDAC1” value at HDAC1 was “No inhibition”. The IC50 on HDAC2 was more than 2000 nM; against HDAC3 it was 269 nM.
The matching figures for `Nc1cc(F)ccc1NC(=O)c1ccc2[nH]cnc2c1` [Compound D]: “No inhibition”, more than 2000 nM and 282 nM.
Turning to `CN1CCN(c2ccc3cc(C(=O)Nc4ccc(F)cc4N)cnc3c2C2CC2)CC1` [Compound E], the IC50 was 1610 nM on HDAC1, 805 nM at HDAC2 and 68 nM on HDAC3.
The corresponding values for `Nc1cc(F)ccc1NC(=O)c1cnc2c(ccn2CCN2CCOCC2)c1` [Compound G] are more than 2000 nM, 1530 nM and 193 nM.
The corresponding values for `Nc1cc(F)ccc1NC(=O)c1ccc2c(cnn2CCN2CCOCC2)c1` [Compound H] are more than 2000 nM, 1780 nM and 320 nM.
The matching figures for `Nc1cc(F)ccc1NC(=O)c1cnc2c(C3CC3)c(N3CCNCC3)ccc2c1` [Compound I]: more than 2000 nM, 589 nM and 57 nM.
As for `Nc1cc(F)ccc1NC(=O)c1cnc2cc(N3CCNCC3)ccc2c1` [Compound J], the “IC50 (nM) HDAC1” value at HDAC1 is given as “No inhibition”. The concentration for half-maximal inhibition (IC50) at HDAC2 is more than 2000 nM; at HDAC3, 470 nM.
For `Nc1ccccc1NC(=O)c1cc2ccc(N3CCNCC3)cc2cn1` [Compound K, N-(2-aminophenyl)-7-(piperazin-1-yl)isoquinoline-3-carboxamide], the IC50 against HDAC1 is 299 nM; against HDAC2, 271 nM; on HDAC3, 38 nM.
The matching figures for `Nc1ccccc1NC(=O)c1cc2ccc(N3CCNCC3)c(C3CC3)c2cn1` [Compound L]: 228 nM, 212 nM and 33 nM.
The corresponding values for `Nc1cc(F)ccc1NC(=O)c1cc2ccc(N3CCNCC3)c(C3CC3)c2cn1` [Compound M] are 462 nM, 228 nM and 30 nM.
As for `Nc1cc(F)ccc1NC(=O)c1cnc2cc(N3CCNCC3)ccc2n1` [Compound N], at HDAC1, the “IC50 (nM) HDAC1” value was “No inhibition”. The “IC50 (nM) HDAC2” value against HDAC2 is “No inhibition”. The same molecule returned an IC50 against HDAC3 of 1300 nM.
Take `Nc1ccc(F)cc1NC(=O)c1cnc2cc(N3CCNCC3)ccc2n1` [Compound O]: the IC50 is more than 2000 nM at HDAC1, more than 2000 nM against HDAC2 and 675 nM at HDAC3.
Take `Nc1ccc(F)cc1NC(=O)c1ccc2nc(N3CCNCC3)cnc2c1` [Compound P]: the IC50 was more than 2000 nM against HDAC1, 1100 nM on HDAC2 and 235 nM against HDAC3.
On to `Nc1ccc(F)cc1NC(=O)c1cnc2cc(N3CCNCC3)ccc2c1` [Compound Q, N-(2-amino-5-fluorophenyl)-7-(piperazin-1-yl)quinoline-3-carboxamide], for which the half-inhibitory concentration (IC50) is more than 2000 nM at HDAC1, more than 2000 nM at HDAC2 and 308 nM against HDAC3.
With `Nc1ccc(F)cc1NC(=O)c1ccc2nc(N3CCNCC3)ccc2c1` [Compound R], the half-inhibitory concentration (IC50) was more than 2000 nM against HDAC1, 1340 nM against HDAC2 and 315 nM at HDAC3.

Source of the values: patent US9096549B2, “Selective HDAC3 inhibitors” (Acetylon Pharmaceuticals, Inc., priority 2013, dated 2015).
